Tests used:
[1] = system: Human immunodeficiency virus 1; assay: Antiviral activity against HIV-1 IIIB harboring reverse transcriptase E138K mutant infected in human MT4 cells by MTT assay; format: functional, organism-based; settings: Human immunodeficiency virus 1, IIIB
[2] = system: Human immunodeficiency virus 1; assay: microbe, parasite or virus in culture; settings: Human immunodeficiency virus 1, IIIB, MT4
Description: Antiviral activity against wild type HIV-1 IIIB infected in human MT4 cells assessed as protection against virus-induced cytopathic effect by MTT assay

[3] = system: Human immunodeficiency virus 1; assay: Antiviral activity against HIV-1 IIIB harboring reverse transcriptase Y181C mutant infected in human MT4 cells by MTT assay; format: functional, organism-based; settings: Human immunodeficiency virus 1, IIIB
[4] = system: Human immunodeficiency virus 1; assay: Antiviral activity against HIV-1 IIIB harboring reverse transcriptase […] mutant infected in human MT4 cells by MTT assay; format: functional, organism-based; settings: Human immunodeficiency virus 1, IIIB
[5] = system: Human immunodeficiency virus 1; assay: Antiviral activity against HIV-1 IIIB harboring reverse transcriptase K103N mutant infected in human MT4 cells by MTT assay; format: functional, organism-based; settings: Human immunodeficiency virus 1, IIIB
[6] = Cytotoxicity against human MT4 cells assessed as reduction in cell viability by MTT assay; format: toxicity, cell-based
[7] = target: Human immunodeficiency virus type 1 reverse transcriptase (Human immunodeficiency virus 1, UniProt Q72547)
Description: Inhibition of HIV-1 reverse transcriptase using oligo(dT)16 as primer measured after 40 mins by picogreen-dye based spectrofluorometric analysis

[8] = system: Human immunodeficiency virus 1; assay: microbe, parasite or virus in culture; settings: Human immunodeficiency virus 1, IIIB, MT4; remark: listed apart in the source
Description: Antiviral activity against HIV-1 IIIB harboring reverse transcriptase Y188L mutant infected in human MT4 cells by MTT assay

in vitro [9] = settings: human, MT4 cells
Description: Selectivity index, ratio of CC50 for cytotoxicity against human MT4 cells to EC50 for antiviral activity against wild type HIV-1 IIIB infected in human MT4 cells

in vitro [10] = settings: human
[11] = Metabolic stability in human liver assessed as intrinsic clearance in microsomes at 1 uM measured up to 45 mins in presence of NADPH by LC-MS/MS analysis; format: ADME; settings: read-out: CLH
in vitro [12] = settings: human; remark: listed apart in the source

SMILES	EC50 [1]	EC50 [2]	EC50 [3]	EC50 [4]	EC50 [5]	CC50 [6]	IC50 [7]	EC50 [8]	selectivity ratio (in vitro [9])	half-life at 0.75 h, 1 µM (in vitro [10]; microsomes)	microsomal CLint at 1 µM [11]	CLint scaled at 0.75 h, 1 µM (in vitro [12])	half-life at 0.75 h, 1 µM (in vitro [10]; liver microsomes)	CLint scaled at 0.75 h, 1 µM (in vitro [12]; liver)
Cc1cc(-c2cccc(C#N)c2)cc(C)c1Oc1cc(N)nc(Nc2ccc(C#N)cc2)n1	46 nM	7 nM	73 nM	88 nM	8 nM	20.2 µM	42 nM	878 nM	2890	–	–	–	–	–
Cc1cc(-c2ccc(C#N)cc2)ccc1Oc1cc(N)nc(Nc2ccc(C#N)cc2)n1	9 nM	2 nM	32 nM	38 nM	3 nM	10.4 µM	29 nM	1110 nM	5250	–	–	–	–	–
Cc1cc(-c2cccc(Cl)c2)cc(C)c1Oc1cc(N)nc(Nc2ccc(C#N)cc2)n1	–	38 nM	–	–	–	22.3 µM	85 nM	–	588	–	–	–	–	–
Cc1ccccc1-c1cc(C)c(Oc2cc(N)nc(Nc3ccc(C#N)cc3)n2)c(C)c1	–	35.2 nM	–	–	–	25.6 µM	121 nM	–	726	–	–	–	–	–
COc1cc(Oc2cc(N)nc(Nc3ccc(C#N)cc3)n2)ccc1-c1ccc(C#N)cc1	13 nM	2.3 nM	28 nM	36 nM	12 nM	12.9 µM	30 nM	1360 nM	5590	–	–	–	–	–
Cc1cc(-c2ccccc2C#N)ccc1Oc1cc(N)nc(Nc2ccc(C#N)cc2)n1	–	9.84 nM	–	–	–	28.6 µM	50 nM	–	2900	–	–	–	–	–
O=C(O)Cc1ccccc1Nc1c(Cl)cccc1Cl [DICLOFENAC]	–	–	–	–	–	–	–	–	–	9.25 min	150 µL/min/mg	4.49 mL/min/kg	–	–
Cc1cc(Oc2cc(N)nc(Nc3ccc(C#N)cc3)n2)ccc1-c1ccc(C#N)cc1	12 nM	2.3 nM	33 nM	71 nM	10 nM	34.3 µM	26 nM	1420 nM	15100	–	36 µL/min/mg	–	38.5 min	1.08 mL/min/kg
Cc1cc(-c2ccc(F)cc2)cc(C)c1Oc1cc(N)nc(Nc2ccc(C#N)cc2)n1	–	13.6 nM	–	–	–	23.1 µM	61 nM	–	1700	–	–	–	–	–
Cc1cc(C#N)cc(C)c1Oc1nc(Nc2ccc(C#N)cc2)nc(N)c1Br [ETRAVIRINE]	6 nM	2.9 nM	–	6 nM	2 nM	> 4.6 µM	–	18 nM	–	–	–	–	–	–
Cc1cc(-c2ccc(Cl)cc2)cc(C)c1Oc1cc(N)nc(Nc2ccc(C#N)cc2)n1	–	34.2 nM	–	–	–	21.5 µM	102 nM	–	628	–	–	–	–	–
Cc1cc(-c2ccc(C#N)cc2)cc(C)c1Oc1cc(N)nc(Nc2ccc(C#N)cc2)n1	12 nM	4.7 nM	16 nM	8 nM	4 nM	18.1 µM	37 nM	82 nM	3870	–	–	–	–	–
Cc1cc(-c2ccccc2F)ccc1Oc1cc(N)nc(Nc2ccc(C#N)cc2)n1	–	11.5 nM	–	–	–	29.5 µM	45 nM	–	2560	–	–	–	–	–
Cc1cccc(-c2cc(C)c(Oc3cc(N)nc(Nc4ccc(C#N)cc4)n3)c(C)c2)c1	–	68.3 nM	–	–	–	27.6 µM	152 nM	–	404	–	–	–	–	–
Cc1ccc(-c2cc(C)c(Oc3cc(N)nc(Nc4ccc(C#N)cc4)n3)c(C)c2)cc1	–	40.1 nM	–	–	–	10 µM	69 nM	–	249	–	–	–	–	–
Cc1cc(-c2ccc(C#N)c(C#N)c2)cc(C)c1Oc1cc(N)nc(Nc2ccc(C#N)cc2)n1	–	5.69 nM	–	–	–	17.6 µM	40 nM	–	3090	–	–	–	–	–
COc1ccccc1-c1cc(C)c(Oc2cc(N)nc(Nc3ccc(C#N)cc3)n2)c(C)c1	–	42.8 nM	–	–	–	21.8 µM	122 nM	–	508	–	–	–	–	–

SMILES	EC50 [1]	EC50 [2]	EC50 [3]	EC50 [4]	EC50 [5]	CC50 [6]	IC50 [7]	EC50 [8]	selectivity ratio (in vitro [9])	half-life at 0.75 h, 1 µM (in vitro [10]; microsomes)	microsomal CLint at 1 µM [11]	CLint scaled at 0.75 h, 1 µM (in vitro [12])	half-life at 0.75 h, 1 µM (in vitro [10]; liver microsomes)	CLint scaled at 0.75 h, 1 µM (in vitro [12]; liver)
Cc1cc(-c2ccccc2Cl)cc(C)c1Oc1cc(N)nc(Nc2ccc(C#N)cc2)n1	–	28.4 nM	–	–	–	25.1 µM	100 nM	–	882	–	–	–	–	–
Cc1cc(-c2ccc(C#N)c(F)c2)ccc1Oc1cc(N)nc(Nc2ccc(C#N)cc2)n1	–	6 nM	–	–	–	6.6 µM	39 nM	–	1090	–	–	–	–	–
Cc1cc(-c2ccc(F)cc2)ccc1Oc1cc(N)nc(Nc2ccc(C#N)cc2)n1	–	9.5 nM	–	–	–	20.1 µM	50 nM	–	2120	–	–	–	–	–
Cc1cc(-c2ccccc2C#N)cc(C)c1Oc1cc(N)nc(Nc2ccc(C#N)cc2)n1	–	7.12 nM	–	–	–	25.4 µM	40 nM	–	3570	–	–	–	–	–
Cc1cc(-c2cccc(F)c2)cc(C)c1Oc1cc(N)nc(Nc2ccc(C#N)cc2)n1	–	15.8 nM	–	–	–	24.7 µM	52 nM	–	1570	–	–	–	–	–
COc1cc2cc(C#N)ccc2c(OC)c1Oc1cc(N)nc(Nc2ccc(C#N)cc2)n1	–	5 nM	–	38 nM	–	19 µM	–	–	3500	–	–	–	–	–
Cc1cc(-c2ccccc2F)cc(C)c1Oc1cc(N)nc(Nc2ccc(C#N)cc2)n1	–	9.6 nM	–	–	–	29.3 µM	46 nM	–	3060	–	–	–	–	–
Cc1cc(-c2ccc(C#N)c(C#N)c2)ccc1Oc1cc(N)nc(Nc2ccc(C#N)cc2)n1	–	10.9 nM	–	–	–	76.7 µM	90 nM	–	7040	–	–	–	–	–
COc1ccc(-c2cc(C)c(Oc3cc(N)nc(Nc4ccc(C#N)cc4)n3)c(C)c2)cc1	–	7.7 nM	–	–	–	10.7 µM	54 nM	–	1390	–	–	–	–	–
Cc1cc(-c2ccc(C#N)c(F)c2)cc(C)c1Oc1cc(N)nc(Nc2ccc(C#N)cc2)n1	–	5.33 nM	–	–	–	5 µM	50 nM	–	937	–	–	–	–	–
COc1cccc(-c2cc(C)c(Oc3cc(N)nc(Nc4ccc(C#N)cc4)n3)c(C)c2)c1	–	9.7 nM	–	–	–	19.3 µM	73 nM	–	1980	–	–	–	–	–
Cc1cc(-c2cccc(F)c2)ccc1Oc1cc(N)nc(Nc2ccc(C#N)cc2)n1	–	60.6 nM	–	–	–	11.3 µM	101 nM	–	187	–	–	–	–	–
Cc1cc(-c2ccccc2)cc(C)c1Oc1cc(N)nc(Nc2ccc(C#N)cc2)n1	–	9.7 nM	–	–	–	25.6 µM	45 nM	–	2640	–	–	–	–	–
Cc1cc(-c2cccc(C#N)c2)ccc1Oc1cc(N)nc(Nc2ccc(C#N)cc2)n1	36 nM	5.5 nM	450 nM	287 nM	105 nM	27.4 µM	41 nM	6550 nM	4940	–	–	–	–	–
Cc1cc(-c2ccccc2)ccc1Oc1cc(N)nc(Nc2ccc(C#N)cc2)n1	–	19 nM	–	–	–	20 µM	39 nM	–	1050	–	–	–	–	–
O=C1Nc2ccc(Cl)cc2[C@@](C#CC2CC2)(C(F)(F)F)O1 [EFAVIRENZ]	–	–	7 nM	30 nM	–	> 6.34 µM	–	–	–	–	–	–	–	–
Cc1ccnc2c1NC(=O)c1cccnc1N2C1CC1 [NEVIRAPINE]	–	–	11500 nM	1360 nM	5840 nM	> 15 µM	–	> 15000 nM	–	–	–	–	–	–

Reference: ChEMBL document CHEMBL5131537 (J Med Chem, 2022)
